Test results from patent US6809065B2, “Herbicide containing substituted pyrazole derivative as active ingredient” (SDS Biotech K.K., priority 2001, dated 2004).

What was measured:
Chenopodium album [1] = experiment: Upland field foliage treatment (Test Example 1); type: in vivo; conditions: foliage treatment 14th day after sowing, wettable powder, 1 kg active ingredient per hectare, evaluated 21st day after application
Description: (§1) In the above evaluation criteria, the term “herbicidal effect” means evaluation to the objective weeds, and a higher index of the evaluation criteria means higher herbicidal effect on the objective weeds. On the other hand, a lower index of the evaluation criteria for the crops means higher safety to the crops. A plastic pot of 130 cm^2 was filled with upland soil. Then, seeds of weeds, namely, Setaria viridis, Digitaria adscendens, Chenopodium album and Stellaria media, and seeds of crops, namely, soybean (Glycine max) and wheat (Triticum aestivum), were sowed and covered with soil of about 1 cm thick. On the 14th day after the sowing, a wettable powder composition was prepared in accordance with Formulation Example 1, diluted with water in such an amount that the amount of the active ingredient became 1 kg per hectare, and then uniformly applied to the plant leaf surfaces. On the 21st day after the application, observation and evaluation were carried out according to the aforesaid criteria.

Digitaria adscendens [2] = experiment: Upland field foliage treatment (Test Example 1); type: in vivo; conditions: foliage treatment 14th day after sowing, wettable powder, 1 kg active ingredient per hectare, evaluated 21st day after application
Description: as §1

Setaria viridis [3] = experiment: Upland field foliage treatment (Test Example 1); type: in vivo; conditions: foliage treatment 14th day after sowing, wettable powder, 1 kg active ingredient per hectare, evaluated 21st day after application
Description: as §1

Stellaria media [4] = experiment: Upland field foliage treatment (Test Example 1); type: in vivo; conditions: foliage treatment 14th day after sowing, wettable powder, 1 kg active ingredient per hectare, evaluated 21st day after application
Description: as §1

soybean (Glycine max) [5] = experiment: Upland field foliage treatment (Test Example 1), crop; type: in vivo; conditions: foliage treatment 14th day after sowing, 1 kg active ingredient per hectare, evaluated 21st day, lower index = higher safety
Description: as §1

[6] = tested on: wheat (Triticum aestivum); experiment: as above; type: in vivo; conditions: foliage treatment 14th day after sowing, 1 kg active ingredient per hectare, evaluated 21st day, lower index = higher safety
Description: as §1

Chenopodium album [7] = experiment: Upland soil treatment (Test Example 2); type: in vivo; conditions: soil surface treatment next day after sowing, wettable powder, 1 kg active ingredient per hectare, evaluated 21st day after application
Description: (§2) In the above evaluation criteria, the term “herbicidal effect” means evaluation to the objective weeds, and a higher index of the evaluation criteria means higher herbicidal effect on the objective weeds. On the other hand, a lower index of the evaluation criteria for the crops means higher safety to the crops. A plastic pot of 130 cm^2 was filled with upland soil. Then, seeds of weeds, namely, Setaria viridis, Digitaria adscendens, Chenopodium album and Stellaria media, and seeds of crops, namely, soybean (Glycine max) and wheat (Triticum aestivum), were sowed and covered with soil of about 1 cm thick. On the next day after the sowing, a wettable powder composition was prepared in accordance with Formulation Example 1, diluted with water in such an amount that the amount of the active ingredient became 1 kg per hectare, and then uniformly applied to the soil surface. On the 21st day after the application, observation and evaluation were carried out according to the aforesaid criteria.

Digitaria adscendens [8] = experiment: Upland soil treatment (Test Example 2); type: in vivo; conditions: soil surface treatment next day after sowing, wettable powder, 1 kg active ingredient per hectare, evaluated 21st day after application
Description: as §2

Setaria viridis [9] = experiment: Upland soil treatment (Test Example 2); type: in vivo; conditions: soil surface treatment next day after sowing, wettable powder, 1 kg active ingredient per hectare, evaluated 21st day after application
Description: as §2

Stellaria media [10] = experiment: Upland soil treatment (Test Example 2); type: in vivo; conditions: soil surface treatment next day after sowing, wettable powder, 1 kg active ingredient per hectare, evaluated 21st day after application
Description: as §2

soybean (Glycine max) [11] = experiment: Upland soil treatment (Test Example 2), crop; type: in vivo; conditions: soil surface treatment next day after sowing, 1 kg active ingredient per hectare, evaluated 21st day, lower index = higher safety
Description: as §2

[12] = tested on: wheat (Triticum aestivum); experiment: Upland soil treatment (Test Example 2), crop; type: in vivo; conditions: soil surface treatment next day after sowing, 1 kg active ingredient per hectare, evaluated 21st day, lower index = higher safety
Description: as §2

Echinochloa spp. = experiment: Paddy field treatment (Test Example 3); type: in vivo, Echinochloa crusgalli; conditions: paddy pot, submerged 4 cm, dropped on water surface 10th day after transplantation, 1 kg active ingredient per hectare, evaluated 21st day
Protocol: (§3) In the above evaluation criteria, the term “herbicidal effect” means evaluation to the objective weeds, and a higher index of the evaluation criteria means higher herbicidal effect on the objective weeds. On the other hand, a lower index of the evaluation criteria for the crops means higher safety to the crops. A plastic pot of 130 cm^2 was filled with paddy soil, and soil puddling was carried out to adjust the submerged depth to 4 cm. Then, seeds of Echinochloa crusgalli, Monochoria vaginalis, Ammannia multiflora and Scirpus juncoides were sowed, and rice (Oryza […], variety: Koshihikari) of two-leaf period was transplanted by 2 rice plants of 1 stub per pot at a depth of 3 cm. On the 10th day after the transplantation, a wettable powder composition was prepared in accordance with Formulation Example 1, diluted with water in such an amount that the amount of the active ingredient became 1 kg per hectare, and then dropped to diffuse on the water surface. On the 21st day after the dropping, observation and evaluation were carried out according to the aforesaid criteria.

Ammannia multiflora = experiment: Paddy field treatment (Test Example 3); type: in vivo; conditions: paddy pot, submerged 4 cm, dropped on water surface 10th day after transplantation, 1 kg active ingredient per hectare, evaluated 21st day
Protocol: as §3

Monochoria vaginalis = experiment: Paddy field treatment (Test Example 3); type: in vivo; conditions: paddy pot, submerged 4 cm, dropped on water surface 10th day after transplantation, 1 kg active ingredient per hectare, evaluated 21st day
Protocol: as §3

Scirpus juncoides = experiment: Paddy field treatment (Test Example 3); type: in vivo; conditions: paddy pot, submerged 4 cm, dropped on water surface 10th day after transplantation, 1 kg active ingredient per hectare, evaluated 21st day
Protocol: as §3

[13] = tested on: rice (Oryza sative, variety: Koshihikari); experiment: Paddy field treatment (Test Example 3), crop; type: in vivo, Oryza sativa; conditions: transplanted rice two-leaf period, water surface treatment 10th day after transplantation, 1 kg active ingredient per hectare, evaluated 21st day, lower index = higher safety
Protocol: as §3

Row | Structure (SMILES) | Herbicidal activity Chenopodium album (Chenopodium album [1]) | Herbicidal activity Digitaria adscendens (Digitaria adscendens [2]) | Herbicidal activity Setaria viridis (Setaria viridis [3]) | Herbicidal activity Stellaria media (Stellaria media [4]) | Herbicidal activity Glycine max (soybean (Glycine max) [5]) | Herbicidal activity Triticum aestivum [6] | Herbicidal activity Chenopodium album (Chenopodium album [7]) | Herbicidal activity Digitaria adscendens (Digitaria adscendens [8]) | Herbicidal activity Setaria viridis (Setaria viridis [9]) | Herbicidal activity Stellaria media (Stellaria media [10]) | Herbicidal activity Glycine max (soybean (Glycine max) [11]) | Herbicidal activity Triticum aestivum [12] | Herbicidal activity Echinochloa spp. (Echinochloa spp.) | Herbicidal activity Ammannia multiflora (Ammannia multiflora) | Herbicidal activity Monochoria vaginalis (Monochoria vaginalis) | Herbicidal activity Scirpus juncoides (Scirpus juncoides) | Herbicidal activity Oryza sativa [13]
1 | COC=C(Cn1nc(-c2ccc(Cl)cc2Cl)cc1C)C(=O)OC [Compound 7] | 5 (herbicidal effect of not less than 90% by weight) | 4 (herbicidal effect of not less than 70% by weight and less than 90% by weight) | 4 (herbicidal effect of not less than 70% by weight and less than 90% by weight) | 5 (herbicidal effect of not less than 90% by weight) | 0 (herbicidal effect of not less than 0% by weight and less than 10% by weight) | 0 (herbicidal effect of not less than 0% by weight and less than 10% by weight) | 4 (herbicidal effect of not less than 70% by weight and less than 90% by weight) | 4 (herbicidal effect of not less than 70% by weight and less than 90% by weight) | 5 (herbicidal effect of not less than 90% by weight) | 4 (herbicidal effect of not less than 70% by weight and less than 90% by weight) | 0 (herbicidal effect of not less than 0% by weight and less than 10% by weight) | 0 (herbicidal effect of not less than 0% by weight and less than 10% by weight) | 4 (herbicidal effect of not less than 70% by weight and less than 90% by weight) | 4 (herbicidal effect of not less than 70% by weight and less than 90% by weight) | 4 (herbicidal effect of not less than 70% by weight and less than 90% by weight) | 3 (herbicidal effect of not less than 50% by weight and less than 70% by weight) | 0 (herbicidal effect of not less than 0% by weight and less than 10% by weight)
2 | COC=C(Cn1nc(-c2cccc(C)c2)c(Br)c1C)C(=O)OC [Compound 26] | 5 (herbicidal effect of not less than 90% by weight) | 5 (herbicidal effect of not less than 90% by weight) | 4 (herbicidal effect of not less than 70% by weight and less than 90% by weight) | 5 (herbicidal effect of not less than 90% by weight) | 1 (herbicidal effect of not less than 10% by weight and less than 30% by weight) | 0 (herbicidal effect of not less than 0% by weight and less than 10% by weight) | 4 (herbicidal effect of not less than 70% by weight and less than 90% by weight) | 4 (herbicidal effect of not less than 70% by weight and less than 90% by weight) | 4 (herbicidal effect of not less than 70% by weight and less than 90% by weight) | 4 (herbicidal effect of not less than 70% by weight and less than 90% by weight) | 0 (herbicidal effect of not less than 0% by weight and less than 10% by weight) | 0 (herbicidal effect of not less than 0% by weight and less than 10% by weight) | 5 (herbicidal effect of not less than 90% by weight) | 5 (herbicidal effect of not less than 90% by weight) | 5 (herbicidal effect of not less than 90% by weight) | 4 (herbicidal effect of not less than 70% by weight and less than 90% by weight) | 0 (herbicidal effect of not less than 0% by weight and less than 10% by weight)
3 | COC=C(Cn1nc(-c2cccc(Cl)c2Cl)c(Cl)c1C)C(=O)OC [Compound 20] | 5 (herbicidal effect of not less than 90% by weight) | 4 (herbicidal effect of not less than 70% by weight and less than 90% by weight) | 4 (herbicidal effect of not less than 70% by weight and less than 90% by weight) | 5 (herbicidal effect of not less than 90% by weight) | 0 (herbicidal effect of not less than 0% by weight and less than 10% by weight) | 0 (herbicidal effect of not less than 0% by weight and less than 10% by weight) | 5 (herbicidal effect of not less than 90% by weight) | 4 (herbicidal effect of not less than 70% by weight and less than 90% by weight) | 4 (herbicidal effect of not less than 70% by weight and less than 90% by weight) | 4 (herbicidal effect of not less than 70% by weight and less than 90% by weight) | 0 (herbicidal effect of not less than 0% by weight and less than 10% by weight) | 0 (herbicidal effect of not less than 0% by weight and less than 10% by weight) | 4 (herbicidal effect of not less than 70% by weight and less than 90% by weight) | 5 (herbicidal effect of not less than 90% by weight) | 5 (herbicidal effect of not less than 90% by weight) | 4 (herbicidal effect of not less than 70% by weight and less than 90% by weight) | 0 (herbicidal effect of not less than 0% by weight and less than 10% by weight)
4 | COC=C(Cn1nc(-c2ccccc2)c(Cl)c1SC)C(=O)OC [Compound 41] | 4 (herbicidal effect of not less than 70% by weight and less than 90% by weight) | 4 (herbicidal effect of not less than 70% by weight and less than 90% by weight) | 4 (herbicidal effect of not less than 70% by weight and less than 90% by weight) | 4 (herbicidal effect of not less than 70% by weight and less than 90% by weight) | 0 (herbicidal effect of not less than 0% by weight and less than 10% by weight) | 0 (herbicidal effect of not less than 0% by weight and less than 10% by weight) | 4 (herbicidal effect of not less than 70% by weight and less than 90% by weight) | 4 (herbicidal effect of not less than 70% by weight and less than 90% by weight) | 4 (herbicidal effect of not less than 70% by weight and less than 90% by weight) | 4 (herbicidal effect of not less than 70% by weight and less than 90% by weight) | 0 (herbicidal effect of not less than 0% by weight and less than 10% by weight) | 0 (herbicidal effect of not less than 0% by weight and less than 10% by weight) | 4 (herbicidal effect of not less than 70% by weight and less than 90% by weight) | 3 (herbicidal effect of not less than 50% by weight and less than 70% by weight) | 3 (herbicidal effect of not less than 50% by weight and less than 70% by weight) | 3 (herbicidal effect of not less than 50% by weight and less than 70% by weight) | 0 (herbicidal effect of not less than 0% by weight and less than 10% by weight)
